As a reminder, the IC50 is the concentration that inhibits the measured activity by half.

Holding throughout (format): functional, cell-based
The subject of experiment [1] is HL-60. As to the kind of experiment: Antiproliferative activity against human HL60 cells after 24 to 72 hrs by MTT assay. For orientation: Tetrazolium dyes change colour on reduction, which living cells bring about.
The test system of experiment [2] is Hep 3B2. Put plainly: Antiproliferative activity against human Hep3B cells after 24 to 72 hrs by MTT assay.
The subject of experiment [3] is SMMC-7721. Put plainly: Antiproliferative activity against human SMMC7721 cells after 24 to 72 hrs by MTT assay.
Experiment [4] relates to L1210. Put plainly: Antiproliferative activity against mouse L1210 cells after 24 to 72 hrs by MTT assay.
In experiment [5] the test system is CAPAN-1. As to the kind of experiment: Cytotoxicity against human Capan1 cells assessed as reduction in cell viability by MTT assay.
For experiment [6], the system named is L1210. As to the kind of experiment: Cytotoxicity against mouse L1210 cells assessed as reduction in cell viability by MTT assay.
The test system of experiment [7] is HL-60. As to the kind of experiment: Cytotoxicity against human HL60 cells assessed as reduction in cell viability by MTT assay.
In experiment [8] the test system is Hep 3B2. Put plainly: Cytotoxicity against human Hep3B cells assessed as reduction in cell viability by MTT assay.
Experiment [9] concerns SMMC-7721. As to the kind of experiment: Cytotoxicity against human SMMC7721 cells assessed as reduction in cell viability by MTT assay.

SMILES strings stand for the structures.

As for `CCn1cc(-c2nnc(SCC(=O)N/N=C/c3ccccc3O)o2)c(=O)c2cc(F)c(N3CCN(C)CC3)cc21`, the IC50 in experiment [1], in [2], in experiment [3] and in [4] was 1.4 to 52.3 µM throughout.
Take `CCn1cc(-c2nnc(SCC(=O)N/N=C/c3ccccc3C(=O)O)o2)c(=O)c2cc(F)c(N3CCN(C)CC3)cc21`: the half-maximal inhibitory concentration (IC50) in experiment [1], in experiment [2], in [3] and in [4] was 1.4 to 52.3 µM each time.
For `CCn1cc(-c2nnc(SCC(=O)N/N=C/c3ccc4c(c3)OCO4)o2)c(=O)c2cc(F)c(N3CCN(C)CC3)cc21`, the IC50 in [1], in experiment [2], in experiment [3] and in experiment [4] was 1.4 to 52.3 µM in each case.
Turning to `COc1ccc(/C=N/Nc2nnc(-c3cn4c5c(c(N6CCN(C)CC6)c(F)cc5c3=O)OCC4C)[nH]2)cc1` (stereo not given), the IC50 in experiment [1], in experiment [2], in experiment [3] and in experiment [4] was 1.4 to 52.3 µM each time.
As to `CCn1cc(-c2nnc(SCC(=O)N/N=C/c3ccccc3OC)o2)c(=O)c2cc(F)c(N3CCN(C)CC3)cc21`, the IC50 in [1], in experiment [2], in [3] and in experiment [4] was 1.4 to 52.3 µM throughout.
Turning to `CCn1cc(-c2nnc(SCC(=O)N/N=C/c3ccc(Cl)cc3)o2)c(=O)c2cc(F)c(N3CCN(C)CC3)cc21`, the IC50 in experiment [1], in experiment [2], in [3] and in experiment [4] was 1.4 to 52.3 µM throughout.
With `CCn1cc(-c2nnc(SCc3nnc(-c4ccccc4)o3)[nH]2)c(=O)c2cc(F)c(N3CCN(C)CC3)cc21`, the IC50 in experiment [5], in experiment [6], in [7], in [8] and in experiment [9] was 3.8 to 35.2 µM throughout.
With `CCn1cc(-c2nnc(SCC(=O)N/N=C/c3cc(OC)c(OC)c(OC)c3)o2)c(=O)c2cc(F)c(N3CCN(C)CC3)cc21`, the half-inhibitory concentration (IC50) in experiment [1], in [2], in experiment [3] and in experiment [4] was 1.4 to 52.3 µM throughout.
Turning to `CC1COc2c(N3CCN(C)CC3)c(F)cc3c(=O)c(-c4nnc(SCC(=O)N/N=C/c5ccccc5)[nH]4)cn1c23` (stereo not given), the IC50 in [1], in [2], in experiment [3] and in [4] was 1.4 to 52.3 µM each time.
On to `CC1COc2c(N3CCN(C)CC3)c(F)cc3c(=O)c(-c4nnc(SCC(=O)N/N=C/c5ccc(Cl)cc5)[nH]4)cn1c23` (stereo not given), for which the IC50 in experiment [1], in experiment [2], in experiment [3] and in [4] was 1.4 to 52.3 µM in each case.
As to `CC1COc2c(N3CCN(C)CC3)c(F)cc3c(=O)c(-c4nnc(SCC(=O)N/N=C/c5ccc([N+](=O)[O-])c6c5OCO6)[nH]4)cn1c23` (stereo not given), the IC50 in [1], in experiment [2], in [3] and in experiment [4] was 1.4 to 52.3 µM in each case.
`CC1COc2c(N3CCN(C)CC3)c(F)cc3c(=O)c(-c4nnc(SCC(=O)N/N=C/c5ccc(F)cc5)[nH]4)cn1c23` (stereo not given): the IC50 in experiment [1], in [2], in experiment [3] and in experiment [4] was 1.4 to 52.3 µM each time.
For `CCn1cc(-c2nnc(SCC(=O)N/N=C/c3ccc(C(=O)O)cc3)o2)c(=O)c2cc(F)c(N3CCN(C)CC3)cc21`, the IC50 in experiment [1], in experiment [2], in experiment [3] and in experiment [4] was 1.4 to 52.3 µM in each case.
For the compound `CCn1cc(-c2nnc(SCC(=O)N/N=C/c3ccc(C#N)cc3)o2)c(=O)c2cc(F)c(N3CCN(C)CC3)cc21`, the IC50 in experiment [1], in experiment [2], in experiment [3] and in experiment [4] was 1.4 to 52.3 µM in each case.
As for `CC1COc2c(N3CCN(C)CC3)c(F)cc3c(=O)c(-c4nnc(SCC(=O)N/N=C/c5ccc(C(=O)O)cc5)[nH]4)cn1c23` (stereo not given), the IC50 in experiment [1], in experiment [2], in experiment [3] and in experiment [4] was 1.4 to 52.3 µM each time.
Turning to `CCn1cc(-c2nc(SCc3nnc(-c4ccc([N+](=O)[O-])cc4)o3)n(CN(C)C)n2)c(=O)c2cc(F)c(N3CCN(C)CC3)cc21`, the IC50 in experiment [5], in experiment [6], in experiment [7], in [8] and in experiment [9] was 1.5 to 24.5 µM each time.
As to `CCn1cc(-c2nnc(SCC(=O)N/N=C/c3ccc(OC)cc3)o2)c(=O)c2cc(F)c(N3CCN(C)CC3)cc21`, the half-maximal inhibitory concentration (IC50) in [1], in experiment [2], in experiment [3] and in experiment [4] was 1.4 to 52.3 µM each time.
`CCn1cc(-c2nnc(SCC(=O)N/N=C/c3ccc(F)cc3)o2)c(=O)c2cc(F)c(N3CCN(C)CC3)cc21`: the IC50 in experiment [1], in experiment [2], in experiment [3] and in experiment [4] was 1.4 to 52.3 µM each time.
On to `CCn1cc(-c2nnc(SCC(=O)N/N=C/c3cccc([N+](=O)[O-])c3)o2)c(=O)c2cc(F)c(N3CCN(C)CC3)cc21`, for which the half-inhibitory concentration (IC50) in [1], in experiment [2], in experiment [3] and in experiment [4] was 1.4 to 52.3 µM each time.
`CC1COc2c(N3CCN(C)CC3)c(F)cc3c(=O)c(-c4nnc(N/N=C/c5ccccc5)[nH]4)cn1c23` (stereo not given): the IC50 in experiment [1], in [2], in [3] and in experiment [4] was 1.4 to 52.3 µM each time.
In the case of `CCn1cc(-c2nnc(SCC(=O)N/N=C/c3ccccc3)o2)c(=O)c2cc(F)c(N3CCN(C)CC3)cc21`, the IC50 in [1], in experiment [2], in experiment [3] and in [4] was 1.4 to 52.3 µM each time.
On to `COc1ccc(/C=N/NC(=O)CSc2nnc(-c3cn4c5c(c(N6CCN(C)CC6)c(F)cc5c3=O)OCC4C)[nH]2)cc1` (stereo not given), for which the IC50 in experiment [1], in experiment [2], in [3] and in experiment [4] was 1.4 to 52.3 µM throughout.
Turning to `CCn1cc(-c2nnc(SCC(=O)N/N=C/c3ccc(O)c(OC)c3)o2)c(=O)c2cc(F)c(N3CCN(C)CC3)cc21`, the IC50 in experiment [1], in experiment [2], in experiment [3] and in experiment [4] was 1.4 to 52.3 µM each time.
As for `CC1COc2c(N3CCN(C)CC3)c(F)cc3c(=O)c(-c4nnc(N/N=C/c5ccc(F)cc5)[nH]4)cn1c23` (stereo not given), the IC50 in experiment [1], in experiment [2], in [3] and in experiment [4] was 1.4 to 52.3 µM each time.
As for `CCn1cc(-c2nnc(SCC(=O)N/N=C/c3ccc([N+](=O)[O-])cc3)o2)c(=O)c2cc(F)c(N3CCN(C)CC3)cc21`, the IC50 in experiment [1], in [2], in experiment [3] and in experiment [4] was 1.4 to 52.3 µM each time.
In the case of `CCn1cc(-c2nnc(SCC(=O)N/N=C/c3ccc(C)cc3)o2)c(=O)c2cc(F)c(N3CCN(C)CC3)cc21`, the IC50 in [1], in experiment [2], in [3] and in experiment [4] was 1.4 to 52.3 µM throughout.
As to `CC1COc2c(N3CCN(C)CC3)c(F)cc3c(=O)c(-c4nnc(N/N=C/c5ccc(Cl)cc5)[nH]4)cn1c23` (stereo not given), the IC50 in [1], in [2], in experiment [3] and in experiment [4] was 1.4 to 52.3 µM throughout.
